From US9045461B2, “Phenyl-heteroaryl derivatives and methods of use thereof” (TransTech Pharma, LLC, priority 2010, dated 2015)
Counter-ions that a name gives are not always drawn.

Legend:
sRAGE binding to S100b = target: T1, sRAGE binding to S100b (Homo sapiens, UniProt Q15109); assay: RAGE binding assay (ELISA), S100b as the RAGE ligand; details: compounds tested in hydrochloride salt form, concentration at which 50% signal has been inhibited
T1 construct: extracellular domain can be isolated by proteolysis of RAGE to generate soluble RAGE (sRAGE) comprised of the V and C domains
T1 sequence (Q15109 23-342 limits assumed): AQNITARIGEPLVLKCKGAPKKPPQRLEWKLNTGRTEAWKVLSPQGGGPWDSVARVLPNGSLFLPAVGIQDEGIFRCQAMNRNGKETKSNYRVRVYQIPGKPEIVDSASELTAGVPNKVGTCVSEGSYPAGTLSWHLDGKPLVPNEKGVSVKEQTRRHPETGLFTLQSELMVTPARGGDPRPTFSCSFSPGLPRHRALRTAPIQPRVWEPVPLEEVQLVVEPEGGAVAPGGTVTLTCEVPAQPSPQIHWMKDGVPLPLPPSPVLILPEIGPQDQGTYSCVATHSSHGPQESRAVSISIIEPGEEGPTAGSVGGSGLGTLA
How it was run: (§1)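 Ligand (500 ng/well) coated in carbonate buffer pH 9.8 overnight at 4° C and blocked with 1% BSA; test compound (10-100 μM in water, 4% DMSO co-solvent) incubated with sRAGE (6 nM FAC) 1 h at 37° C. Bound sRAGE detected by anti-sRAGE/biotin-anti-mouse/AP-streptavidin with pNPP, A405. IC50 = 50% signal inhibition.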

[1] = target: T2, sRAGE binding to β-amyloid (Homo sapiens, UniProt Q15109); assay: RAGE binding assay (ELISA), β-amyloid as the RAGE ligand; details: compounds tested in hydrochloride salt form, concentration at which 50% signal has been inhibited
T2 construct: extracellular domain can be isolated by proteolysis of RAGE to generate soluble RAGE (sRAGE) comprised of the V and C domains
T2 sequence (Q15109 23-342 limits assumed): as above
How it was run: as §1

SMILES	IC50 (sRAGE binding to S100b) [µM]	IC50 [1] [µM]
CCCCc1nnc(OC2CCN(C)CC2)cc1-c1ccc(OC2CCCCC2)c(-c2cnoc2)c1 [Example 72, 3-Butyl-4-(4-cyclohexyloxy-3-isoxazol-4-yl-phenyl)-6-(1-methyl-piperidin-4-yloxy)-pyridazine dihydrochloride]	1.69	1.2
CCCCc1nnc(OC2CCN(C)CC2)cc1-c1ccc(OC2CCCCC2)c(N2CCCS2(=O)=O)c1 [Example 75, 3-Butyl-4-[4-cyclohexyloxy-3-(1,1-dioxo-1lambda*6*-isothiazolidin-2-yl)-phenyl]-6-(1-methyl-piperidin-4-yloxy)-pyridazine dihydrochloride]	2.19	2.85
CCCCc1nnc(OC2CCN(C)CC2)cc1-c1ccc(OC2CCCCC2)c(C2=NC(C)(C)CO2)c1 [Example 76, 3-Butyl-4-[4-cyclohexyloxy-3-(4,4-dimethyl-4,5-dihydro-oxazol-2-yl)-phenyl]-6-(1-methyl-piperidin-4-yloxy)-pyridazine]	2.07	6.78
CCCCc1nnc(OC2CCN(C)CC2)cc1-c1ccc(OC2CCCCC2)c(-c2cnn(CCOC)c2)c1 [Example 78, 3-Butyl-4-{4-cyclohexyloxy-3-[1-(2-methoxy-ethyl)-1H-pyrazol-4-yl]-phenyl}-6-(1-methyl-piperidin-4-yloxy)-pyridazine dihydrochloride]	0.5	1.16
CCCCc1nnc(OC2CCN(C)CC2)cc1-c1ccc(OC2CCCCC2)c(-c2nnn(C)n2)c1 [Example 79, 3-Butyl-4-[4-cyclohexyloxy-3-(2-methyl-2H-tetrazol-5-yl)-phenyl]-6-(1-methyl-piperidin-4-yloxy)-pyridazine dihydrochloride]	1.47	1.49
CCCCc1nnc(C(=O)NC2CCN(C)CC2)cc1-c1ccc(OCc2ccccc2)cc1 [Example 80, 5-(4-Benzyloxy-phenyl)-6-butyl-pyridazine-3-carboxylic acid (1-methyl-piperidin-4-yl)-amide dihydrochloride]	1.25	1.25
CCCCc1nnc(C(=O)N[C@@H]2CN3CCC2CC3)cc1-c1ccc(OCc2ccccc2)cc1 [Example 82, 5-(4-Benzyloxy-phenyl)-6-butyl-pyridazine-3-carboxylic acid (S)-(1-aza-bicyclo[2.2.2]oct-3-yl)-amide dihydrochloride]	1.27	1.29
CCCCc1nnc(C(=O)N[C@H]2CN3CCC2CC3)cc1-c1ccc(OCc2ccccc2)cc1 [Example 83, 5-(4-Benzyloxy-phenyl)-6-butyl-pyridazine-3-carboxylic acid (R)-(1-aza-bicyclo[2.2.2]oct-3-yl)-amide dihydrochloride]	1.18	1.13
CCCCc1nnc(C(=O)N[C@@H]2CN3CCC2CC3)cc1-c1ccc(OC2CCCCC2)cc1 [Example 85, (S)-6-Butyl-5-(4-cyclohexyloxy-phenyl)-pyridazine-3-carboxylic acid (1-aza-bicyclo[2.2.2]oct-3-yl)-amide dihydrochloride]	1.49	1.97
CCCCc1nnc(C(=O)N[C@H]2CN3CCC2CC3)cc1-c1ccc(OC2CCCCC2)cc1 [Example 86, (R)-6-Butyl-5-(4-cyclohexyloxy-phenyl)-pyridazine-3-carboxylic acid (1-aza-bicyclo[2.2.2]oct-3-yl)-amide dihydrochloride]	1.92	1.02

Now from value to compound:

IC50 (sRAGE binding to S100b) [µM]	IC50 [1] [µM]	SMILES
1.74	1.04	CCCCc1nnc(OC2CCN(C)CC2)cc1-c1ccc(OC2CCCCC2)c(OC)c1 [Example 73, 3-Butyl-4-(4-cyclohexyloxy-3-methoxy-phenyl)-6-(1-methyl-piperidin-4-yloxy)-pyridazine dihydrochloride]
1.64	1.16	CCCCc1nnc(OC2CCN(C)CC2)cc1-c1ccc(OC2CCCCC2)c(O)c1 [Example 74, 5-[3-Butyl-6-(1-methyl-piperidin-4-yloxy)-pyridazin-4-yl]-2-cyclohexyloxy-phenol dihydrochloride]
0.68	0.66	CCCCc1nnc(OC2CCN(C)CC2)cc1-c1ccc(OC2CCCCC2)c(NC(=O)NC(C)(C)C)c1 [Example 77, 1-tert-Butyl-3-{5-[3-butyl-6-(1-methyl-piperidin-4-yloxy)-pyridazin-4-yl]-2-cyclohexyloxy-phenyl}-urea dihydrochloride]
1.82	1.54	CCCCc1nnc(C(=O)NCC2CCN(C)CC2)cc1-c1ccc(OCc2ccccc2)cc1 [Example 81, 5-(4-Benzyloxy-phenyl)-6-butyl-pyridazine-3-carboxylic acid (1-methyl-piperidin-4-ylmethyl)-amide dihydrochloride]
1.56	1.96	CCCCc1nnc(C(=O)NC2CCN(C)CC2)cc1-c1ccc(OC2CCCCC2)cc1 [Example 84, 6-Butyl-5-(4-cyclohexyloxy-phenyl)-pyridazine-3-carboxylic acid (1-methyl-piperidin-4-yl)-amide dihydrochloride]
1.97	2.43	CCCCc1nnc(C(=O)NC[C@H](O)CN(C)C)cc1-c1ccc(OC2CCCCC2)cc1 [Example 87, 6-Butyl-5-(4-cyclohexyloxy-phenyl)-pyridazine-3-carboxylic acid ((S)-3-dimethylamino-2-hydroxy-propyl)-amide dihydrochloride]
2.03	2.46	CCCCc1nnc(C(=O)NC[C@@H](O)CN(C)C)cc1-c1ccc(OC2CCCCC2)cc1 [Example 88, 6-Butyl-5-(4-cyclohexyloxy-phenyl)-pyridazine-3-carboxylic acid ((R)-3-dimethylamino-2-hydroxy-propyl)-amide dihydrochloride]
2.73	2.01	CCCCc1nnc(C(=O)NCC2(OC)CCN(C)CC2)cc1-c1ccc(OC2CCCCC2)cc1 [Example 89, 6-Butyl-5-(4-cyclohexyloxy-phenyl)-pyridazine-3-carboxylic acid (4-methoxy-1-methyl-piperidin-4-ylmethyl)-amide dihydrochloride]
1.54	1.78	CCCCc1nnc(C(=O)NCC2CNCCO2)cc1-c1ccc(OC2CCCCC2)cc1 (centres unmarked) [Example 90, 6-Butyl-5-(4-cyclohexyloxy-phenyl)-pyridazine-3-carboxylic acid (morpholin-2-ylmethyl)-amide dihydrochloride]
1.14	1.39	CCCCc1nnc(C(=O)NC[C@H]2CCCN2CC)cc1-c1ccc(OC2CCCCC2)cc1 [Example 91, 6-Butyl-5-(4-cyclohexyloxy-phenyl)-pyridazine-3-carboxylic acid ((R)-1-ethyl-pyrrolidin-2-ylmethyl)-amide dihydrochloride]
1.75	1.02	CCCCc1nnc(C(=O)NC[C@@H]2CCCN2CC)cc1-c1ccc(OC2CCCCC2)cc1 [Example 92, 6-Butyl-5-(4-cyclohexyloxy-phenyl)-pyridazine-3-carboxylic acid ((S)-1-ethyl-pyrrolidin-2-ylmethyl)-amide dihydrochloride]
1.69	2.51	CCCCc1nnc(C(=O)NCCN2CCC(O)CC2)cc1-c1ccc(OC2CCCCC2)cc1 [Example 93, 6-Butyl-5-(4-cyclohexyloxy-phenyl)-pyridazine-3-carboxylic acid [2-(4-hydroxy-piperidin-1-yl)-ethyl]-amide dihydrochloride]
